Each block holds one compound with its values, some of them ahead of it.
Tests used:
[1] = Inhibition of RXR (unknown origin)
[2] = molecular target: T1, Nuclear receptor subfamily 4immunitygroup A member 1 (Homo sapiens, UniProt P22736); experiment: Binding affinity to Nur77 (unknown origin) by SPR assay
[3] = molecular target: T1, Nuclear receptor subfamily 4immunitygroup A member 1; experiment: Agonist activity at full length Nur77 in Normal human bronchial epithelial cell assessed as fold increase of receptor transactivation at 10 uM; type: cell-based; settings: filed as agonist
[4] = molecular target: T2, Nuclear receptor subfamily 2 group E member 1 (Homo sapiens, UniProt Q9Y466); experiment: Inverse agonist activity at TLX (unknown origin)
[5] = molecular target: T2, Nuclear receptor subfamily 2 group E member 1; experiment: Inverse agonist activity at TLX (unknown origin) assessed as fold activation; settings: filed as inverse agonist
[6] = molecular target: T3, Nuclear receptor subfamily 4 group A member 2/Retinoic acid receptor RXR-alpha (Homo sapiens, UniProt P19793+P43354); experiment: Inhibition of Nurr1-RXRalpha (unknown origin) by BRET assay; type: protein-complex assay
[7] = molecular target: T4, Retinoic acid receptor RXR-alpha (Homo sapiens, UniProt P19793); experiment: Inhibition of RXRalpha (unknown origin) by BRET assay
T4 sequence (P19793 whole entry): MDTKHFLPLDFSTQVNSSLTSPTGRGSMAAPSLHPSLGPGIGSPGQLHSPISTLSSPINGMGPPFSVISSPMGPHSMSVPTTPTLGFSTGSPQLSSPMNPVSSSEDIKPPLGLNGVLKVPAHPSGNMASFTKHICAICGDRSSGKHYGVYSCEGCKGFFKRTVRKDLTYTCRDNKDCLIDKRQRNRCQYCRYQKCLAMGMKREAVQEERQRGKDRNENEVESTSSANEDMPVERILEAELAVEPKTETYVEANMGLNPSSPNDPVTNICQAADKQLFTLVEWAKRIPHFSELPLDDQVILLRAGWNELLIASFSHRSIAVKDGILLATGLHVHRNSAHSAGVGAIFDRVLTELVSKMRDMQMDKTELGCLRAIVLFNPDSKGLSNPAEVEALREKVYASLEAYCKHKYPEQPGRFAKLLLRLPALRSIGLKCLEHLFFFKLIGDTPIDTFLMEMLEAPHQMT

Homo sapiens = organism: Homo sapiens; experiment: Selectivity ratio of IC50 for Nurr1-RXRalpha (unknown origin) to IC50 for RXRalpha (unknown origin) by BRET assay
[8] = molecular target: T1, Nuclear receptor subfamily 4immunitygroup A member 1; experiment: Inhibition of full length Nur77 in HEK293T cells at 50 uM relative to control; type: cell-based
[9] = molecular target: Nuclear receptor subfamily 4 group A member 1 (Mus musculus) (UniProt P12813); experiment: Inhibition of full length Nur77 in mouse MN9D cells at 50 uM relative to control; type: cell-based
[10] = molecular target: T4, Retinoic acid receptor RXR-alpha; experiment: Antagonist activity at RXRalpha (unknown origin)
[11] = molecular target: T4, Retinoic acid receptor RXR-alpha; experiment: Inhibition of RXRalpha (unknown origin)
[12] = molecular target: T5, Retinoic acid receptor RXR-beta (Homo sapiens, UniProt P28702); experiment: Inhibition of RXRbeta (unknown origin)
T5 sequence (P28702 whole entry): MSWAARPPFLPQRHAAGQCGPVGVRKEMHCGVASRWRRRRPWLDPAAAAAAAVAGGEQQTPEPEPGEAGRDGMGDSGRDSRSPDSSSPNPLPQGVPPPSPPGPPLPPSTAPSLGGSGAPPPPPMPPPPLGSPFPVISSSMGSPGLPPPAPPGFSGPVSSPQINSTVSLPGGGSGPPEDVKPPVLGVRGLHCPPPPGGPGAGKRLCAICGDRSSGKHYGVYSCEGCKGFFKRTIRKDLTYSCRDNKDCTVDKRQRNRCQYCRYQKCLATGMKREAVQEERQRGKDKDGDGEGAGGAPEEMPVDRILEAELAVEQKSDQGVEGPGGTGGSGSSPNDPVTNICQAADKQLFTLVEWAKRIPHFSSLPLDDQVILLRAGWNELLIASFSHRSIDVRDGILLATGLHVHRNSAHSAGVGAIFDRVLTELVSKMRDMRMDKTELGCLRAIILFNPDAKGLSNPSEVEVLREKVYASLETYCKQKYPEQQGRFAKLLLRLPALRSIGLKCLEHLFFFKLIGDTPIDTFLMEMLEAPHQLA

[13] = molecular target: T6, Retinoic acid receptor RXR-gamma (Homo sapiens, UniProt P48443); experiment: Inhibition of RXRgamma (unknown origin)
T6 sequence (P48443 whole entry): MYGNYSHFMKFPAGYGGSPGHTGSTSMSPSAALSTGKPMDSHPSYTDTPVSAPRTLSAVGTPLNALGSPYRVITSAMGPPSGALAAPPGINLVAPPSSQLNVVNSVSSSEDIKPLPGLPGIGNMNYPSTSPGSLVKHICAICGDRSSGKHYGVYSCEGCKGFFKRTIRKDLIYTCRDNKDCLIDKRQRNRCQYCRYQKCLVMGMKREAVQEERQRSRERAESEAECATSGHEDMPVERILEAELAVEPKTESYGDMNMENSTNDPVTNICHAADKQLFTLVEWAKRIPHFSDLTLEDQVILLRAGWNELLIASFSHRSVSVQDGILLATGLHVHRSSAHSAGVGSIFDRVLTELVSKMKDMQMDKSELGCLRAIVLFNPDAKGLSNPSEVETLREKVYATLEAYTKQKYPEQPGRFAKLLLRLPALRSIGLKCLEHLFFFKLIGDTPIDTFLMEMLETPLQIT

Mus musculus = experiment: Anti-alzheimer activity against APP/PS1 mouse assessed as decrease in A-beta levels in hippocampus at 100 mg/kg, po measured after 14 days by ELISA analysis relative to control; type: functional; design: scale not given: the % may be the effect or the level left; settings: time 14 day
[14] = molecular target: T1, Nuclear receptor subfamily 4immunitygroup A member 1; experiment: Inhibition of Gal4-fused Nur77 in HEK293T cells; type: cell-based
[15] = molecular target: T3, Nuclear receptor subfamily 4 group A member 2/Retinoic acid receptor RXR-alpha; experiment: Inhibition of full-length Nurr1-RXRalpha in human SH-SY5Y cells; type: cell-based
[16] = Half life in ip dosed mouse; type: ADME, organism-based; settings: in vivo
[17] = Half life in ip dosed mouse brain; type: ADME, organism-based
[18] = Antagonist activity at NFkappaB in rat RAW264.7 cells
[19] = molecular target: T7, Retinoic acid receptor RXR-alpha (Homo sapiens) (UniProt P19793); experiment: Agonist activity at RXRalpha (unknown origin) assessed as fold activation; settings: filed as agonist
T7 sequence (whole entry): T4 sequence (P19793 whole entry)

[20] = molecular target: T8, Retinoic acid receptor RXR-beta (Homo sapiens) (UniProt P28702); experiment: Agonist activity at RXRbeta (unknown origin) assessed as fold activation; settings: filed as agonist
T8 sequence (whole entry): T5 sequence (P28702 whole entry)

[21] = molecular target: T9, Retinoic acid receptor RXR-gamma (Homo sapiens) (UniProt P48443); experiment: Agonist activity at RXRgamma (unknown origin) assessed as fold activation; settings: filed as agonist
T9 sequence (whole entry): T6 sequence (P48443 whole entry)

T2 sequence (Q9Y466 whole entry): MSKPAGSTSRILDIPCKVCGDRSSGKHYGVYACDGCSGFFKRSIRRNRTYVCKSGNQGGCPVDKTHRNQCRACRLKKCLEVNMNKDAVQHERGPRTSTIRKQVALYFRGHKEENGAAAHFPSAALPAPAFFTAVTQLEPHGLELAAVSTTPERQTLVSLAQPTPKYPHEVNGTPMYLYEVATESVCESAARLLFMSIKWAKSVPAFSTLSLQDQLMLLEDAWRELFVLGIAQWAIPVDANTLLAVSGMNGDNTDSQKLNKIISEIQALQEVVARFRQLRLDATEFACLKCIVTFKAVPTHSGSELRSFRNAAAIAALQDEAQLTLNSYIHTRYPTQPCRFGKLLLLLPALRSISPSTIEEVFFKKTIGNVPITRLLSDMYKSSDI
T1 sequence (P22736 whole entry): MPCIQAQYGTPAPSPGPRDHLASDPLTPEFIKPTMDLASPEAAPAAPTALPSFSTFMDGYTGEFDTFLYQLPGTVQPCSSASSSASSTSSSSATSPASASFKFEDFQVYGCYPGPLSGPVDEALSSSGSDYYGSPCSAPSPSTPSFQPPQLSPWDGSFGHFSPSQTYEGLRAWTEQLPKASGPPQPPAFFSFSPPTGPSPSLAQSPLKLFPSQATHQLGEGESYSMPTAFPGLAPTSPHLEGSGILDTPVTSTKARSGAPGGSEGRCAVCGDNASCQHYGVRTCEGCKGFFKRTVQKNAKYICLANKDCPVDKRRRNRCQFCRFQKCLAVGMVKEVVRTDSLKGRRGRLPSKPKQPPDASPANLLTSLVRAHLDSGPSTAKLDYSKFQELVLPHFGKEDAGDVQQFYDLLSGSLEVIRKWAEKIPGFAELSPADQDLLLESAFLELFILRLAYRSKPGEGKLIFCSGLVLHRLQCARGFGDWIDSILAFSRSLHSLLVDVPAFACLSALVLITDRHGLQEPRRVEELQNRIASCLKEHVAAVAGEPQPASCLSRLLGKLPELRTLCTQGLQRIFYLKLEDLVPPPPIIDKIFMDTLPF
T3 sequence (P43354 whole entry, one chain of several): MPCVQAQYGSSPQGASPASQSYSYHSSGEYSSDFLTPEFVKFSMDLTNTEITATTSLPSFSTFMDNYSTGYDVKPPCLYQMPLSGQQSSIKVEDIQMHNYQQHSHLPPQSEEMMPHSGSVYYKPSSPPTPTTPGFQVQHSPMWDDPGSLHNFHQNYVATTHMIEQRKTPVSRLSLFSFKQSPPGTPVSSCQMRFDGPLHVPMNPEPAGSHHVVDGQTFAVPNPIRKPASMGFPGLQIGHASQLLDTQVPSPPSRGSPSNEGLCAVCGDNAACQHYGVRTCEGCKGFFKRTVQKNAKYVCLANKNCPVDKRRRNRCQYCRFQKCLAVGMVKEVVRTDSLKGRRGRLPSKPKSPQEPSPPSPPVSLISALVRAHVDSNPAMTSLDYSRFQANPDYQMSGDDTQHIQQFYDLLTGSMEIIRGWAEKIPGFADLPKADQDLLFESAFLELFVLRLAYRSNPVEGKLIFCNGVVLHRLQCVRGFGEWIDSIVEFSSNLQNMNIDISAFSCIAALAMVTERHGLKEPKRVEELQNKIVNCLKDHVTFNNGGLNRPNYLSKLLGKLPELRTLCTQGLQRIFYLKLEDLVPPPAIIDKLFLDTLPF
Nuclear receptor subfamily 4 group A member 1 (Mus musculus), sequence (P12813 whole entry): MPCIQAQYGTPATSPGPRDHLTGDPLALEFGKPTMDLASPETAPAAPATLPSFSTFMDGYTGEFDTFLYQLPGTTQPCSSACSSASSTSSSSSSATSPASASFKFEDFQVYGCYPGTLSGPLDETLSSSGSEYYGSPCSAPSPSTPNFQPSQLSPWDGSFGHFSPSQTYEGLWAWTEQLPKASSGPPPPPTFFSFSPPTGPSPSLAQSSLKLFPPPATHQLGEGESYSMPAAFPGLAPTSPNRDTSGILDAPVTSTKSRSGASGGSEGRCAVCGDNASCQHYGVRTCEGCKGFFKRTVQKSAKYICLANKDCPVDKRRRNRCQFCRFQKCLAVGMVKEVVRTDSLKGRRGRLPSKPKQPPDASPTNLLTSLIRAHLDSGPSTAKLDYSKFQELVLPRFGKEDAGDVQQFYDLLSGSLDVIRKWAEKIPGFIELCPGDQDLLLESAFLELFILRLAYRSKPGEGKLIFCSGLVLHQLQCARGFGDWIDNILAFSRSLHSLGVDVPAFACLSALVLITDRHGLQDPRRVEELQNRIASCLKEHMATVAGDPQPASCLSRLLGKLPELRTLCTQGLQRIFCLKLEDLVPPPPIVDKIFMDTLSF

SMILES: CCCCC[C@H](O)/C=C/[C@H]1C=CC(=O)[C@@H]1C/C=C\CCCC(=O)O [PROSTAGLANDIN A2]
Kd [2]: 2050 nM
fold change (FC) [3]: 15

SMILES: CC(C)c1cccc(-c2cc(/C=C/C(=O)O)ccc2O)c1
EC50 [6]: 0.794 nM
inhibition ([6]; concentration not given here): 129%
pEC50 [7]: 7.7
Ratio IC50 (Homo sapiens): 25

SMILES: CC1=C(/C=C/C(C)=C/C=C/C(C)=C/C=O)C(C)(C)CCC1 [RETINAL]
EC50 [4]: 200 nM
fold change (FC) [5]: 4

SMILES: CC/C=C\C/C=C\C/C=C\C/C=C\C/C=C\C/C=C\CCC(=O)O
inhibition [8]: 25%
inhibition [9]: 25%

SMILES: CCCCCOc1cc2c(cc1-c1cc(CCC(=O)O)ccc1O)C(C)(C)CCC2(C)C
EC50 [10]: 240 nM

SMILES: C=C(c1ccc(C(=O)O)cc1)c1cc2c(cc1C)C(C)(C)CCC2(C)C [BEXAROTENE]
Activity (Mus musculus): 75%

SMILES: Cc1ccc(Cl)c(Nc2ccccc2C(=O)O)c1Cl [MECLOFENAMIC ACID]
EC50 [14]: 4700 nM
EC50 [15]: 900 nM
half-life [16]: 1.5 h
half-life [17]: 1.5 h

SMILES: CCCCCCCCC(=O)c1c(O)cc(O)cc1CC(=O)OCCCCC
IC50 [18]: 1600 nM

SMILES: CC1=C2[C@H](/C=C(\C)C(=O)O)CC[C@@H](C)[C@H]2CC1
fold change (FC) [19]: 9
fold change (FC) [20]: 69
fold change (FC) [21]: 4

Now from value to compound:

EC50 [1]: 3 nM
SMILES: Cc1cc2c(cc1C1(c3ccc(C(=O)O)cn3)CC1)C(C)(C)CCC2(C)C

EC50 [4]: 200 nM
fold change (FC) [5]: 5
SMILES: CC1(C)CC=C(c2ccccc2)c2cc(/C=C/c3ccc(C(=O)O)cc3)ccc21

EC50 [11]: 0.58 nM
EC50 [12]: 23 nM
EC50 [13]: 3 nM
SMILES: CCN(c1ccc(C(=O)O)cc1)c1ccc(C(C)C)c(OCC(C)C)c1

EC50 [11]: 32 nM
EC50 [12]: 36 nM
EC50 [13]: 376 nM
SMILES: CCN(c1ccc(C(=O)O)cc1)c1ccc(C(C)C)c(OC(C)C)c1

EC50 [4]: 200 nM
SMILES: O=C(O)c1ccc(-c2ccc3cc(O)c(C45CC6CC(CC(C6)C4)C5)cc3c2)cc1
